Source: patent US9511091B2, “Rare earth metal compounds, methods of making, and methods of using the same” (Spectrum Pharmaceuticals, Inc., priority 2002, dated 2016)

Columns and labels:
[1] = reactivity with respect to phosphate: phosphate removal from pH 3 Na2HPO4/HCl stock solution; format: binding; details: for rate of removal of phosphate compared with commercial lanthanum carbonate hydrate La2(CO3)3.H2O and La2(CO3)3.4H2O: FIGS. 17, 20, 23, pH 3; for capacity of phosphate removal (PO4 removed/g of La compound) / phosphate in solution removed: after 10 min, pH 3, La 3 times the stoichiometric amount
Method: A desirable lanthanum carbonate hydroxide is LaCO3OH. […] To determine the reactivity of the lanthanum carbonate hydroxide compound with respect to phosphate, the following procedure was used. A stock solution containing 13.75 g/l of anhydrous Na2HPO4 and 8.5 g/l of HCl is prepared. The stock solution is adjusted to pH 3 by the addition of concentrated HCl. 100 ml of the stock solution is placed in a beaker with a stirring bar. A sample of lanthanum carbonate hydroxide powder is added to the solution. The amount of lanthanum carbonate hydroxide powder is such that the amount of La in suspension is 3 times the stoichiometric amount needed to react completely with the phosphate. Samples of the suspension are taken at intervals, through a filter that separated all solids from the liquid. The liquid sample is analyzed for phosphorous.
(§1) To determine the reactivity of the lanthanum compound with respect to phosphate, the following test was conducted. A stock solution containing 13.75 g/l of anhydrous Na2HPO4 and 8.5 g/l of HCl was prepared. The stock solution was adjusted to pH 3 by the addition of concentrated HCl. An amount of 100 ml of the stock solution was placed in a beaker with a stirring bar. The lanthanum oxychloride from above was added to the solution to form a suspension. The amount of lanthanum oxychloride was such that the amount of La in suspension was 3 times the stoichiometric amount needed to react completely with the phosphate. Samples of the suspension were taken at time intervals, through a filter that separated all solids from the liquid. The liquid sample was analyzed for phosphorous.
as §1, with “Lanthanum carbonate hydroxide powder made as described” for “The lanthanum oxychloride from”, “solution.” for “solution to form a suspension.”, “carbonate hydroxide powder” for “oxychloride”, “intervals” for “intervals,”
(§2) To determine the reactivity of this lanthanum compound with respect to phosphate, the following test was conducted. A stock solution containing 13.75 g/l of anhydrous Na2HPO4 and 8.5 g/l of HCl was prepared. The stock solution was adjusted to pH 3 by the addition of concentrated HCl. An amount of 100 ml of the stock solution was placed in a beaker with a stirring bar. Anhydrous lanthanum oxycarbonate made as described above, was added to the solution. The amount of anhydrous lanthanum oxycarbonate was such that the amount of La in suspension was 3 times the stoichiometric amount needed to react completely with the phosphate. Samples of the suspension were taken at intervals, through a filter that separated all solids from the liquid. The liquid sample was analyzed for phosphorous.
as §2, with “reactivity of the lanthanum compound” for “reactivity of this lanthanum compound”, “stirring bar. La2CO5 powder, made as” for “stirring bar. Anhydrous lanthanum oxycarbonate made as”, “amount of lanthanum oxycarbonate” for “amount of anhydrous lanthanum oxycarbonate”, “taken at intervals through a” for “taken at intervals, through a”

[2] = specific surface area by the BET method; format: physicochemical; details: one of three repeats of Example 5
Method: For each sample, the surface area measured by the BET method and the fraction of phosphate remaining after 10 min of reaction have been tabulated. […] The rate constant k1 is defined by the following equation: d[PO4]/dt=−k1[PO4]
An aqueous HCl solution having a volume of 334.75 ml and containing LaCl3 (lanthanum chloride) at a concentration of 29.2 wt % as La2O3 was added to a 4 liter beaker and heated to 80° C. with stirring. The initial pH of the LaCl3 solution was 2.2. Two hundred and sixty five ml of an aqueous solution containing 63.59 g of sodium carbonate (Na2CO3) was metered into the heated beaker using a small pump at a steady flow rate for 2 hours. Using a Buchner filtering apparatus fitted with filter paper the filtrate was separated from the white powder product. The filter cake was mixed four times, each with 2 liters of distilled water and filtered to wash away the NaCl formed during the reaction. The washed filter cake was placed into a convection oven set at 105° C. for 2 hours or until a stable weight was observed. […] The surface area of the product was determined by the BET method. The test was repeated 3 times and slightly different surface areas and different reaction rates were obtained as shown in Table 1.

[3] = urine phosphate excretion in dogs dosed orally with capsules; format: in vivo, beagle dogs; details: oral capsules, 2250 mg elemental lanthanum twice daily, urine approximately 24 hours after dosing
Method: (§3) Six adult beagle dogs were dosed orally with capsules of LaCO3OH (compound A) or La2O2CO3 (compound B) in a cross-over design using a dose of 2250 mg elemental lanthanum twice daily (6 hours apart). The doses were administered 30 minutes after provision of food to the animals. At least 14 days washout was allowed between the crossover arms. Plasma was obtained pre-dose and 1.5, 3, 6, 7.5, 9, 12, 24, 36, 48, 60, and 72 hours after dosing and analyzed for lanthanum using ICP-MS. Urine was collected by catheterization before and approximately 24 hours after dosing and creatinine and phosphorus concentrations measured.
The tests led to reduction of urine phosphate excretion, a marker of phosphorous binding.

[4] = plasma lanthanum exposure in dogs (ICP-MS); format: in vivo, beagle dogs; details: oral capsules, 2250 mg elemental lanthanum twice daily, (standard deviation)
Method: as §3

[5] = second in vivo study in rats, urinary phosphate excretion; set-up: species or system Sprague-Dawley rats; details: 0.3 or 0.6% of diet, average over days 2, 3, and 4
Description: Six young adult male Sprague-Dawley rats were randomly assigned to each group. Test items were lanthanum oxycarbonates La2O2CO3 and La2CO5 (compound B and compound C), each tested at 0.3 and 0.6% of diet. There was an additional negative control group receiving Sigmacell cellulose in place of the test item.
The test items were mixed thoroughly into Teklad 7012CM diet. All groups received equivalent amounts of dietary nutrients.
Rats were maintained in the animal facility for at least five days prior to use, housed individually in stainless steel hanging cages. On the first day of testing, they were placed individually in metabolic cages along with their test diet. Every 24 hours, their output of urine and feces was measured and collected and their general health visually assessed. The study continued for 4 days. Food consumption for each day of the study was recorded. Starting and ending animal weights were recorded.
Urine samples were assayed for phosphorus, calcium, and creatinine concentration in a Hitachi 912 analyzer using Roche reagents. Urinary excretion of phosphorus per day was calculated for each rat from daily urine volume and phosphorus concentration. […] Food consumption was good for all groups. […]

[6] = binding efficiency test, spiked water; details: 0.50 g in 30.0 ml spike solution, approximately 1 mg/l of each element, 18 hrs, room temperature
Method: Tests were run to determine the binding efficiency of eight different compounds for twenty-four different elements.
The main objective of the tests was to investigate the efficiency at which the compounds bind arsenic and selenium, in view of their use in removing those elements from drinking water. Twenty-one different anions were also included to explore further possibilities. The tests were performed as follows:
The compounds given in Table 6 were added to water and a spike and were vigorously shaken at room temperature for 18 hrs. The samples were filtered and the filtrate analyzed for a suite of elements including Sb, As, Be, Cd, Ca, Cr, Co, Cu, Fe, Pb, Mg, Mn, Mo, Ni, Se, Tl, Ti, V, Zn, Al, Ba, B, Ag, and P.
2. Add standard solutions of the elements given above to make solutions containing approximately 1 mg/l of each element.
1. Weigh 0.50 g of each compound into its own 50 ml centrifuge tube.
2. Add 30.0 ml of the spike solution to each.
3. Cap tightly and shake vigorously for 18 hrs.
4. Filter solution from each centrifuge tube through 0.2 µm syringe filter. Obtain about 6 ml of filtrate.
5. Dilute filtrates 5:10 with 2% HNO3. Final Matrix is 1% HNO3.

| Compound | rate of removal of phosphate compared with commercial lanthanum carbonate hydrate La2(CO3)3.H2O and La2(CO3)3.4H2O [1] | capacity of phosphate removal (PO4 removed/g of La compound) [1] [mg PO4/g] | phosphate in solution removed [1] [%] | surface area of the white powder [2] [m^2/gm] | Median phosphorus/creatinine ratio (% reduction compared to pre-dose value) [3] [%] | Maximum concentration Cmax, plasma lanthanum [4] | Mean (sd) Area Under the Curve0-72 h, plasma lanthanum [4] | Urinary phosphate excretion [5] [mg/day] | % Analyte Removed As [6] [%] | % Analyte Removed Be [6] [%] | % Analyte Removed Ca [6] [%] | % Analyte Removed Cd [6] [%] | % Analyte Removed Co [6] [%] | % Analyte Removed Cr [6] [%] | % Analyte Removed Cu [6] [%] | % Analyte Removed Fe [6] [%] | % Analyte Removed Mg [6] [%] | % Analyte Removed Mn [6] [%] | % Analyte Removed Pb [6] [%] | % Analyte Removed Sb [6] [%] |
| --- | --- | --- | --- | --- | --- | --- | --- | --- | --- | --- | --- | --- | --- | --- | --- | --- | --- | --- | --- | --- |
| O=C([O-])[O-].[La+3].[La+3].[O-2].[O-2] [Compound B, anhydrous lanthanum oxycarbonate] | faster | 120 | 73 | 26.95 | 37.0 | 2.45 (2.2) ng/mL | 42.7 (34.8) ng-h/mL | 2.3 | 92 | 100 | 21 | 85 | 59 | 100 | 98 | 100 | 0 | 99 | 99 | 97 |
| O=C([O-])[O-].[La+3].[OH-] [A, lanthanum carbonate hydroxide] | faster | 110 | 86 |  | 48.4 | 2.77 (2.1) ng/mL | 54.6 (28.0) ng-h/mL |  | 29 | 53 | 28 | 37 | 29 | 100 | 10 | 58 | 0 | 25 | 98 | 87 |
| lanthanum oxycarbonate [Compound C] | faster |  |  |  |  |  |  | 1.9 | 93 | 100 | 0 | 83 | 52 | 100 | 97 | 100 | 0 | 99 | 99 | 96 |
